# Data as given in US20250228971A1, “DESIGN AND CONSTRUCTION OF EVOLUTIONARY-GUIDED "SELECTION GENE DRIVE" THERAPY” (THE PENN STATE RESEARCH FOUNDATION, priority 2022, published 2025).
# Columns and labels:
# [1] = tested on: EGFR L858R transformed cell population; assay: Prototype dual-switch selection drive in vitro (FIG. 3); type: cell-based
# Excerpt: The dual-switch drive engineers the evolutionary dynamics of an EGFR L858R transformed cell population in vitro. […] Rimiducid is removed to inactivate switch 1 driven drug resistance in the gene drive cell.
# [2] = tested on: PC9 cell line; assay: Switch 2 sensitivity of cancer cell lines (PC9); type: cell-based
# Excerpt: (§1) Personalize switch 2 designs for different NSCLC tumors. Quantitative models (FIG. 5) have identified the extent of switch 2 bystander driven killing as a key factor in gene drive success. This effect is larger in from spatial systems (2D/3D) (FIG. 10). Pharmacologically, the toxin responsible for the bystander effect must be diffusible and have a half-life on the order of hours to be evolutionarily useful. Prototypes used here meet these transport constraints, but some cancer cell types display differential biological sensitivity to distinct switch 2 metabolites. […] Cell and organoid type specificity in Switch 2 designs is assessed in a larger number of genetically defined NSCLC cell line (FIGS. 8 and 10).
# [3] = tested on: mixed wild-type and S2 vCyD BaF3 cells; assay: Enzyme-prodrug bystander assay (vCyD, BaF3); type: cell-based, murine; details: 1 mM 5-FC
# Procedure: Enzyme-prodrug bystander assays (vCyD and vNfsA). To evaluate the S2 vCyD system, populations of wild-type and cytosine deaminase-expressing BaF3 cells were mixed at defined ratios and seeded at 30k/well in 96-well plates in triplicate, and 1 mM 5-FC was added. Cell viability was measured after 48 hours using CellTiter-Glo and normalized to untreated controls. Similarly, wild-type and S1vEGFRosi-S2vCyD PC9 cells were mixed, seeded at 20k/well, and treated with 1 mM 5-FC.
# [4] = tested on: EGFR+ BaF3 tumors expressing S2 vCyD; assay: In vivo cytosine deaminase activity; design: species or system mice; details: daily dosing of 5-FC
# Procedure: In vivo cytosine deaminase activity. Mice were randomized into three arms (five mice/arm).
# Tumors were allowed to grow for 12 days, and then once-daily treatment was initiated. The wild-type arm and one of the S2 vCyD arms received 800 uL 500 mg/kg 5-FC via ip injection. The second S2 vCyD arm received 800 uL vehicle control (sterile PBS). Tumor volumes were measured every other day.
# [5] = tested on: RET fusion driven cancer cell line; assay: Switch 2 sensitivity of cancer cell lines (RET line); type: cell-based
# Excerpt: as §1
# [6] = tested on: S1 vEGFRerl BaF3 tumors; assay: Engineered Switch 1 BaF3 in vivo model (dimerizer-dependence); design: species or system mice; details: once-daily dimerizer, range of doses, 12 days
# Procedure: Engineered Switch 1 BaF3 in vivo models. All animal experiments were conducted under a protocol approved by the Institutional Animal Care and Use Committee. In the dimerizer-dependence in vivo experiment, S1 vEGFRerl BaF3 cells were subcutaneously grafted on both flanks (3.5M/flank) of NOD-SCID mice (Jackson Labs). Mice were randomized into four arms (0, 0.1, 1, and 10 mg/kg dimerizer) of 3 mice each. Mice received 100 uL dimerizer or vehicle control (2% Tween in PBS) once daily via intraperitoneal injection. Tumor volumes were measured with calipers following 12 days of treatment.
# [7] = tested on: phospho-EGFR and phospho-ERK; assay: Immunoblotting of EGFR/MAPK signaling in PC9 cells; type: cell-based, human; details: erlotinib-treated S1 vEGFRerl PC9 cells, dimerizer added
# [8] = tested on: S1 vEGFRerl BaF3 cells; assay: BaF3 dimerizer-dependence assay (growth rate); type: cell-based, murine; details: absence of IL-3; range of dimerizer concentrations
# Procedure: BaF3 dimerizer-dependence assays. S1 vEGFRerl BaF3s were seeded in 12-well plates at 100k/well with dimerizer (AP20187, Takara) in triplicate. Cell counts were measured on a hemocytometer every day for four days, and an exponential curve was fit to the data to estimate growth rates.
# [9] = tested on: mixed-population PC9 tumors; assay: Gene drive in PC9 tumors in vivo
# Procedure: To test this, mixtures of 50% gene drive and 50% resistant PC9 cells were generated to reflect a possible population structure at the beginning of Switch 2. These pooled populations were grafted in mice. The mice were then treated with Switch 2 drugs (osimertinib and 5-FC) with or without concurrent Switch 1 engagement (dimerizer).
# Finally, these findings were performed in a full-term gene drive experiment in vivo.
# [10] = tested on: S1 vEGFRerl EGFR+ NSCLC PC9 cells; assay: Erlotinib dose response in Switch 1 PC9 cells; type: cell-based, human; details: erlotinib with or without dimerizer
# Procedure: Drug dose response assays. In general, all 1C50 measurements were conducted similarly. Cells were seeded in 96-well plates at 3k/well triplicate. Adherent cells were given 24 hours before the addition of drug. Cell viability was measured three days after drug treatment using CellTiter-Glo 2.0 (Promega) and luminescence values were normalized to vehicle control conditions.
# [11] = tested on: mixed-population EGFR+ BaF3 tumors; assay: Gene drive in BaF3 tumors in vivo; design: species or system mice; details: tumors lacking gene drive cells, daily erlotinib
# [12] = tested on: Early passage wild-type PC9 cells; assay: Early passage wild-type PC9 culture in EGFR inhibitors; type: cell-based; details: even at high concentrations
# [13] = tested on: pooled sensitive, resistant and immune gene drive PC9 cells; assay: Immune gene drive growth tracking in PC9 mixed populations; type: cell-based, human; details: lacking gene drive cells
# [14] = tested on: CRISPRko PC9 population; type: cell-based, human
# [15] = tested on: PC9 cells transduced with EGFR variant library; type: cell-based, human
# [16] = tested on: RET+ thyroid carcinoma TPC1 cells; assay: RET gene drive growth tracking in TPC1 mixed populations; type: cell-based, human; details: absence of gene drive cells, pralsetinib
# Procedure: Gene drive growth tracking. Populations of sensitive, mCherry+ resistant, and GFP+ gene drive cells were mixed together. Except where otherwise noted, mixed populations consisted of 0.5% resistant cells and 5% gene drive cells. Cells were seeded in 24-well plates (1.5M/well for BaF3s and 50k/well for adherent cells) in triplicate, with the exception of the gene-drive titer experiment where 3M/well BaF3s were seeded in 6-well plates in order to maintain sufficient cell numbers for low spike-in conditions. […] For Switch 2 conditions, 500 μM 5-FC replaced dimerizer in the above formulations.
# Cell counts were measured every other day. For counts of adherent cells, wells were washed with PBS, trypsinized, and then resuspended in RPMI. Cell suspensions were transferred to microcentrifuge tubes, vortexed, and a small aliquot (6%) was analyzed by flow cytometry (BD Accuri) to get subpopulation cell counts. The remaining cells were spun down (1k g for 5 min), the supernatant was aspirated, and the cell pellet was resuspended in fresh RPMI and seeded onto a new plate. Fresh drug was added immediately. In general, Switch 2 treatment began when the gene drive population exceeded 60% of the day 0 cell counts. Cells were monitored for 2-3 weeks after apparent eradication to ensure that no remaining cells grew back.
# [17] = in vivo; cited from earlier work
# [18] = tested on: CD19+ and CD19- PC9 cells; assay: Immune bystander assay (vCD19); type: cell-based, human; details: co-culture with primary T cells and blinatumomab
# Procedure: Immune bystander assays (vCD19). PBMCs were sourced from Astarte and T cells were expanded using CD3/CD28 dynabeads (1:100 bead: cell ratio). For the immune bystander experiments, CD19+ and CD19-PC9 cells were seeded 1:1 in 24 wells plates at 60k/well. After 24 hours, 1 ng/mL blinatumomab was added to all wells. At the same time, freshly-thawed T cells were added at the appropriate concentration. Each target: effector ratio was conducted in triplicate. After 48 hours, the supernatant and resuspended adherent cells were pooled and analyzed according to the following staining protocol. Cells were spun down (750 g for 3 min) and resuspended in 50 uL Fc block buffer. After a 10 minute incubation, 100 uL antibody mixture (anti-CD3/FITC and anti-CD19/APC) was added. The cell suspension was incubated at 4C for 20 minutes. After three washes in PBS with 1% BSA, the cell suspension was analyzed by flow cytometry.
molecule,measurement,setting,value
Nc1nc(=O)[nH]cc1F [5-FC],effect on resistant population when switch 2 is induced,"[1]; 5-FC added, rimiducid removed, erlotinib maintained",kills the resistant population
same,sensitivity to cytosine deaminase>5-FC pair,[2],more modestly sensitive
same,killing in mixed cultures (bystander effect),[3],significantly higher killing than expected
same,tumor response,[4],rapid tumor regression
same,sensitivity to cytosine deaminase->5-FC pair,[5],highly sensitive
CC[C@H](C(=O)N1CCCC[C@H]1C(=O)O[C@H](CCc1ccc(OC)c(OC)c1)c1cccc(OCC(=O)NCC(CNC(=O)COc2cccc([C@@H](CCc3ccc(OC)c(OC)c3)OC(=O)[C@@H]3CCCCN3C(=O)[C@@H](CC)c3cc(OC)c(OC)c(OC)c3)c2)CN(C)C)c1)c1cc(OC)c(OC)c(OC)c1 [dimerizer],tumor growth,[6],stimulated tumor growth
same,MAPK signaling (western blot),[7],rescues MAPK signaling
same,growth of S1 vEGFRerl BaF3 cells,[8],Stimulated growth
same,time to progression,"[9]; 50% gene drive/50% resistant, osimertinib and 5-FC with temporary dimerizer vs without",exhibited a longer time to progression
same,inducible drug resistance phenotype,[10],causes inducible drug resistance
C#Cc1cccc(Nc2ncnc3cc(OCCOC)c(OCCOC)cc23)c1 [erlotinib],effect on sensitive EGFR-L858R+ transformed cells,[1],killed
same,tumor dynamics,[11],initially regressed and then relapsed
same,population response,[12],initial regression followed by rapid outgrowth
C=CC(=O)Nc1cc(Nc2nccc(-c3cn(C)c4ccccc34)n2)c(OC)cc1N(C)CCN(C)C [osimertinib],tumor response,"[9]; mouse, in vivo",eventually became refractory to osimertinib treatment
same,outcome of mixed population,[13],Resistance emerged
same,population dynamics,[14],"initial decrease in population size, followed by the outgrowth of resistance"
same,time of treatment to osimertinib resistance,[15],2-3 weeks
same,population response,[12],initial regression followed by rapid outgrowth
CO[C@]1(C(=O)N[C@@H](C)c2ccc(-n3cc(F)cn3)nc2)CC[C@H](c2nc(C)cc(Nc3cc(C)[nH]n3)n2)CC1 [pralsetinib],outcome of mixed population,[16],selected for pre-existing G810R resistance
CC[C@H](C(=O)N1CCCC[C@H]1C(=O)O[C@H](CCc1ccc(OC)c(OC)c1)c1cccc(OCC(=O)NCCNC(=O)COc2cccc([C@@H](CCc3ccc(OC)c(OC)c3)OC(=O)[C@@H]3CCCCN3C(=O)[C@@H](CC)c3cc(OC)c(OC)c(OC)c3)c2)c1)c1cc(OC)c(OC)c(OC)c1 [rimiducid],effect of rimiducid-induced gene drive population on pre-existing resistance,"[1]; switch 1, erlotinib maintained",inhibits the growth of pre-existing resistance
same,clinical exposure,[17],0.1 to 1000 nM
blinatumomab: bispecific CD3/CD19 T cell engager,effect on S2 vCD19 (antigen-positive) cells,[18],targeted by the T cells
same,"effect on wild-type, antigen-negative cells (immune bystander activity)",[18],affected as well
